# From ChEMBL document CHEMBL2424645, “Phosphorylated ganciclovir derivatives: design, synthesis and in vitro and in vivo immunomodulatory activity” (Med Chem Res, 2013)
# Active and inactive are the calls of the source. The rule behind the calls is not given here.
# Key:
# [1] = system: Neutrophil; experiment: Immunomodulatory activity in human neutrophils assessed as increase in intracellular killing activity at 10 ug/mL after 20 mins by NBT dye reduction assay relative to control; type: functional; parameters: scale not given: the % may be the effect or the level left
# [2] = system: Neutrophil; experiment: Immunomodulatory activity in human neutrophils assessed as increase in intracellular killing activity at 1000 ug/mL after 20 mins by NBT dye reduction assay relative to control; type: functional; parameters: scale not given: the % may be the effect or the level left
# [3] = Toxicity in Wistar albino rat; type: organism-based; details: in vivo
# [4] = system: Neutrophil; experiment: Immunomodulatory activity in human neutrophils assessed as increase in intracellular killing activity at 100 ug/mL after 20 mins by NBT dye reduction assay relative to control; type: functional; parameters: scale not given: the % may be the effect or the level left
# [5] = system: Neutrophil; experiment: Immunomodulatory activity in human neutrophils assessed as increase in intracellular killing activity at 40 ug/mL after 20 mins by NBT dye reduction assay relative to control; type: functional; parameters: scale not given: the % may be the effect or the level left
# [6] = system: Neutrophil; experiment: Immunomodulatory activity in human neutrophils assessed as increase in intracellular killing activity at 20 ug/mL after 20 mins by NBT dye reduction assay relative to control; type: functional; parameters: scale not given: the % may be the effect or the level left
# [7] = system: Rattus norvegicus; experiment: Immunomodulatory activity in high fat diet-induced obese Wistar albino rat impaired immune model assessed as CRP level at 8 mg/kg, po after 8 weeks by ELISA relative to high fat-diet fed rat with immune dysfunction; type: functional
# [8] = system: Rattus norvegicus; experiment: Immunomodulatory activity in high fat diet-induced obese Wistar albino rat impaired immune model assessed as IL-1 level at 8 mg/kg, po after 8 weeks by ELISA relative to relative to high fat-diet fed rat with immune dysfunction; type: functional
# [9] = system: Rattus norvegicus; experiment: Immunomodulatory activity in high fat diet-induced obese Wistar albino rat impaired immune model assessed as IL-6 level at 8 mg/kg, po after 8 weeks by ELISA relative to vehicle-treated control; type: functional
# [10] = system: Rattus norvegicus; experiment: Immunomodulatory activity in high fat diet-induced obese Wistar albino rat impaired immune model assessed as TNF-alpha level at 8 mg/kg, po after 8 weeks by ELISA relative to vehicle-treated control; type: functional
# [11] = system: Rattus norvegicus; experiment: Immunomodulatory activity in high fat diet-induced obese Wistar albino rat impaired immune model assessed as decrease in total lymphocytes count at 8 mg/kg, po after 8 weeks by hematology analyser relative to control; type: functional, organism-based; parameters: dose 8 mg/kg
# [12] = system: Rattus norvegicus; experiment: Immunomodulatory activity in high fat diet-induced obese Wistar albino rat impaired immune model assessed as decrease in total monocytes count at 8 mg/kg, po after 8 weeks by hematology analyser relative to control; type: functional, organism-based; parameters: dose 8 mg/kg
# [13] = system: Rattus norvegicus; experiment: Immunomodulatory activity in high fat diet-induced obese Wistar albino rat impaired immune model assessed as decrease in total neutrophils count at 8 mg/kg, po after 8 weeks by hematology analyser relative to control; type: functional, organism-based; parameters: dose 8 mg/kg
Structure (SMILES),Activity [1],Activity [2],LD50 [3],Activity [4],Activity [5],Activity [6],Activity [7],Activity [8],Activity [9],Activity [10],Activity [11],Activity [12],Activity [13]
CCOC(=O)C(CO)NCP1(=O)OCC(OCn2cnc3c(=O)[nH]c(N)nc32)CO1 (stereo not given),39.8%,56.02%,80 mg/kg,53.09%,48.11%,39.92%,inactive,–,–,–,–,–,–
NCCSCP1(=O)OCC(OCn2cnc3c(=O)[nH]c(N)nc32)CO1 (stereo not given),33.77%,57.91%,80 mg/kg,50.36%,49.32%,45.64%,inactive,inactive,inactive,inactive,–,–,–
COC(=O)C(NCP1(=O)OCC(OCn2cnc3c(=O)[nH]c(N)nc32)CO1)C(C)C (stereo not given),41.18%,65.14%,80 mg/kg,62.45%,60.83%,55.09%,22.3 ng/mL,123.6 pg/mL,5.4 pg/mL,37.1 pg/mL,Active,Active,Active
CCOC(=O)C(N)CSCP1(=O)OCC(OCn2cnc3c(=O)[nH]c(N)nc32)CO1 (stereo not given),45.03%,66.82%,80 mg/kg,60.16%,58.04%,56.34%,21.9 ng/mL,122.9 pg/mL,5.2 pg/mL,36.5 pg/mL,Active,Active,Active
Nc1nc2c(ncn2COC(CO)CO)c(=O)[nH]1 [GANCICLOVIR],39.43%,60.11%,80 mg/kg,58.23%,55.89%,53.21%,–,–,–,–,–,–,–
CCOC(=O)C(CC(C)C)NCP1(=O)OCC(OCn2cnc3c(=O)[nH]c(N)nc32)CO1 (stereo not given),39.17%,58.03%,80 mg/kg,51.44%,49.31%,40.92%,inactive,–,–,–,–,–,–
Nc1nc2c(ncn2COC2COP(=O)(CSCCO)OC2)c(=O)[nH]1 (stereo not given),32.25%,55.35%,80 mg/kg,52.15%,47.93%,43.73%,inactive,inactive,inactive,inactive,–,–,–
NCCNCP1(=O)OCC(OCn2cnc3c(=O)[nH]c(N)nc32)CO1 (stereo not given),40.12%,50.46%,80 mg/kg,47.3%,45.35%,42.51%,inactive,inactive,inactive,inactive,–,–,–
CCOC(=O)C(NCP1(=O)OCC(OCn2cnc3c(=O)[nH]c(N)nc32)CO1)c1ccccc1 (stereo not given),40.62%,60.32%,80 mg/kg,52.91%,46.63%,43.11%,inactive,–,–,–,–,–,–
CCC(CO)NCP1(=O)OCC(OCn2cnc3c(=O)[nH]c(N)nc32)CO1 (stereo not given),31.37%,54.32%,80 mg/kg,53.98%,46.76%,43.15%,inactive,inactive,inactive,inactive,–,–,–
Nc1nc2c(ncn2COC2COP(=O)(COCCO)OC2)c(=O)[nH]1 (stereo not given),34.31%,53.02%,80 mg/kg,51.23%,49.85%,46.44%,inactive,inactive,inactive,inactive,–,–,–
Nc1nc2c(ncn2COC2COP(=O)(CNCCO)OC2)c(=O)[nH]1 (stereo not given),33.38%,55.25%,80 mg/kg,50.57%,48.54%,45.98%,inactive,inactive,inactive,inactive,–,–,–
CCOC(=O)C(NCP1(=O)OCC(OCn2cnc3c(=O)[nH]c(N)nc32)CO1)c1ccc(O)cc1 (stereo not given),39.58%,62.25%,80 mg/kg,52.31%,49.49%,42.46%,inactive,–,–,–,–,–,–
